The source of these data is US20230080054A1 (ILDONG PHARMACEUTICAL CO., LTD., priority 2021, published 2023).

For test [1], the target named is T1, human ANO6 (Homo sapiens, UniProt Q4KMQ2).
T1 construct: expressed in transfected cells
T1 sequence (Q4KMQ2 1-931 isoform Q4KMQ2-2): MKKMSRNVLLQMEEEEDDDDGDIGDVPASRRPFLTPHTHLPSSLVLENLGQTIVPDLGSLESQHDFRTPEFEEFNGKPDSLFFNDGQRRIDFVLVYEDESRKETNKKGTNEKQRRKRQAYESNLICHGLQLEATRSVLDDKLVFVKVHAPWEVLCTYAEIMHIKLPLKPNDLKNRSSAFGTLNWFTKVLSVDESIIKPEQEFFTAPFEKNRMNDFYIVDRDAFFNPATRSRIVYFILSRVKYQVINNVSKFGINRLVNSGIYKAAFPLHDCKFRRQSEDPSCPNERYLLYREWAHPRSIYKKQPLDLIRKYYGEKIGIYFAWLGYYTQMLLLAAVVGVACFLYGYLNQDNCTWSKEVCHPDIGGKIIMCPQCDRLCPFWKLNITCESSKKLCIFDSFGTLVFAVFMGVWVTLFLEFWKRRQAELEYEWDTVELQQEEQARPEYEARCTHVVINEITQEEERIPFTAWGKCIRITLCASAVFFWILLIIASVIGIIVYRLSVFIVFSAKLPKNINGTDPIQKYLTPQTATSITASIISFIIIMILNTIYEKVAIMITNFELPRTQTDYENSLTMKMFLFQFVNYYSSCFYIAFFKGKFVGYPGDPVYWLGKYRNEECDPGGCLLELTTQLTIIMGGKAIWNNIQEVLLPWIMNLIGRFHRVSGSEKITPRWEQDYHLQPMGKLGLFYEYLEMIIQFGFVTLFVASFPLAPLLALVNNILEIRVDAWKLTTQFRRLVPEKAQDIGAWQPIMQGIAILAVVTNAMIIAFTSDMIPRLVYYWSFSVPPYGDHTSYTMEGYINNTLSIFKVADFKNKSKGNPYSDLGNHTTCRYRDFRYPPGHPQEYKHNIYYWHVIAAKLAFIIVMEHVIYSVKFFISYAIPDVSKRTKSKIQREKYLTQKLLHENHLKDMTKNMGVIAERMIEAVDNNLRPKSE
As to the kind of experiment: YFP quenching assay (ANO6 ion channel activity). Format: cell-based. Conditions: 10 μM ionomycin; for inhibition at 1 µM: test compound 1 μM, read-out: Inhibition Level 1 μM; for inhibition at 30 µM: test compound 30 μM, read-out: Inhibition Level 30 μM. Summed up: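 FRT cells stably expressing human ANO6 and YFP-H148Q/I152L/F46L, preincubated 10 min at 40° C with compounds (1% DMSO) in PBS. Quench read every 0.4 s after injecting 140 mM SCN- with 10 μM ionomycin; % inhibition from the 3.6–7.6 s fluorescence difference, normalised to no-ionomycin (100%) and ionomycin-only (0%) wells, duplicate or triplicate.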

The target in test [2] is T1, human ANO6. As to the kind of experiment: LACT C2 assay (phosphatidylserine scramblase function assay). Format: cell-based. Conditions: FRT cells expressing human ANO6, 10 μM ionomycin; for inhibition at 0.1 µM: test compound 100 nM, read-out: Inhibition Level 100 nM; for inhibition at 1 µM: test compound 1 μM, read-out: Inhibition Level 1 μM. In a few lines:
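FRT cells stably expressing human ANO6 were pretreated with compound (1% DMSO) for 10 min, then stimulated with 10 μM ionomycin for 10 min. Surface phosphatidylserine was stained with 500 nM Lact-C2-GFP and quantified by imaging. Inhibition was scaled between unstimulated (100%) and ionomycin-only (0%) controls, averaged over triplicates.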

A value given as a limit tells only on which side of the number the result lay.

The inhibition is the change of the read-out against control, counted positive when it falls. For `Cc1ccccc1CNC(=O)c1cccc(Nc2ccc(-c3ccccc3)nn2)c1` [Compound A48], on human ANO6 [1], the inhibition at 1 µM was at least 60% and the inhibition at 30 µM was at least 60%. At human ANO6 [2], the inhibition at 0.1 µM was below 30% and the inhibition at 1 µM lay in the range of 30 to 60%.
As to `O=C(NCc1ccc(Cl)cc1)c1cccc(Nc2ccc(-c3ccccc3)nn2)c1` [Compound A49], on human ANO6 [1], the inhibition at 1 µM lay in the range of 30 to 60% and the inhibition at 30 µM was at least 60%. Further, on human ANO6 [2], the inhibition at 0.1 µM is below 30% and the inhibition at 1 µM was in the range of 30 to 60%.
As to `Cc1cccc(CNC(=O)c2cccc(Nc3ccc(-c4ccccc4)nn3)c2)c1` [Compound A50], on human ANO6 [1], the inhibition at 1 µM is at least 60% and the inhibition at 30 µM is at least 60%. On human ANO6 [2], the inhibition at 0.1 µM was below 30% and the inhibition at 1 µM is 30 to 60%.
`O=C(NCCCc1ccccc1)c1cccc(Nc2ccc(-c3ccccc3)nn2)c1` [Compound A51]: on human ANO6 [1], the inhibition at 1 µM is at least 60% and the inhibition at 30 µM is at least 60%. At human ANO6 [2], the inhibition at 0.1 µM lay in the range of 30 to 60% and the inhibition at 1 µM fell in the range of 30 to 60%.
In the case of `Cc1ccc(CNC(=O)c2cccc(Nc3ccc(-c4ccccc4)nn3)c2)cc1` [Compound A52], at human ANO6 [1], the inhibition at 1 µM was at least 60% and the inhibition at 30 µM was at least 60%. At human ANO6 [2], the inhibition at 0.1 µM was below 30% and the inhibition at 1 µM was below 30%.
Turning to `CC(C)c1ccc(CNC(=O)c2cccc(Nc3ccc(-c4ccccc4)nn3)c2)cc1` [Compound A53], on human ANO6 [1], the inhibition at 1 µM was at least 60% and the inhibition at 30 µM is at least 60%. At human ANO6 [2], the inhibition at 0.1 µM was below 30% and the inhibition at 1 µM is below 30%.
Take `CCOc1ccc(CNC(=O)c2cccc(Nc3ccc(-c4ccccc4)nn3)c2)cc1OCC` [Compound A54]: at human ANO6 [1], the inhibition at 1 µM lay in the range of 30 to 60% and the inhibition at 30 µM was at least 60%. Besides, at human ANO6 [2], the inhibition at 0.1 µM is below 30% and the inhibition at 1 µM was below 30%.
On to `CCN(CC)c1ccc(CNC(=O)c2cccc(Nc3ccc(-c4ccccc4)nn3)c2)cc1` [Compound A55], for which, at human ANO6 [1], the inhibition at 1 µM was at least 60% and the inhibition at 30 µM was at least 60%. On human ANO6 [2], the inhibition at 0.1 µM was below 30% and the inhibition at 1 µM was below 30%.
For the molecule `Cc1ccc(C(C)NC(=O)c2cccc(Nc3ccc(-c4ccccc4)nn3)c2)cc1` (centres unmarked) [Compound A57], at human ANO6 [1], the inhibition at 1 µM was at least 60% and the inhibition at 30 µM was at least 60%. On human ANO6 [2], the inhibition at 0.1 µM is below 30% and the inhibition at 1 µM was below 30%.
Consider `CC(CCc1ccccc1)NC(=O)c1cccc(Nc2ccc(-c3ccccc3)nn2)c1` (centres unmarked) [Compound A58], for which, at human ANO6 [1], the inhibition at 1 µM was at least 60% and the inhibition at 30 µM is at least 60%. In addition, at human ANO6 [2], the inhibition at 0.1 µM was below 30% and the inhibition at 1 µM is below 30%.
Consider `O=C(NC1CCCCC1)c1cccc(Nc2ccc(-c3ccccc3)nn2)c1` [Compound A62], for which, on human ANO6 [1], the inhibition at 1 µM lay within 30 to 60% and the inhibition at 30 µM was at least 60%. Besides, on human ANO6 [2], the inhibition at 0.1 µM is below 30% and the inhibition at 1 µM lay in the range of 30 to 60%.
In the case of `O=C(NC1CCCC1)c1cccc(Nc2ccc(-c3ccccc3)nn2)c1` [Compound A63], on human ANO6 [1], the inhibition at 1 µM is at least 60% and the inhibition at 30 µM is at least 60%. Besides, on human ANO6 [2], the inhibition at 0.1 µM is below 30% and the inhibition at 1 µM is below 30%.
Take `O=C(NCc1ccc2c(c1)OCO2)c1cccc(Nc2ccc(-c3ccccc3)nn2)c1` [Compound A64]: at human ANO6 [1], the inhibition at 1 µM lay in the range of 30 to 60% and the inhibition at 30 µM was at least 60%. On human ANO6 [2], the inhibition at 0.1 µM was below 30% and the inhibition at 1 µM was below 30%.
In the case of `CCCCNC(=O)c1cccc(Nc2ccc(-c3ccccc3)nn2)c1` [Compound A65], on human ANO6 [1], the inhibition at 1 µM is at least 60% and the inhibition at 30 µM is at least 60%. Moreover, on human ANO6 [2], the inhibition at 0.1 µM is below 30% and the inhibition at 1 µM lay within 30 to 60%.
In the case of `CC(C)CNC(=O)c1cccc(Nc2ccc(-c3ccccc3)nn2)c1` [Compound A66], on human ANO6 [1], the inhibition at 1 µM is at least 60% and the inhibition at 30 µM was at least 60%. Further, on human ANO6 [2], the inhibition at 0.1 µM is below 30% and the inhibition at 1 µM was below 30%.
Take `CCOCCCNC(=O)c1cccc(Nc2ccc(-c3ccccc3)nn2)c1` [Compound A67]: at human ANO6 [1], the inhibition at 1 µM is at least 60% and the inhibition at 30 µM is at least 60%. At human ANO6 [2], the inhibition at 0.1 µM was below 30% and the inhibition at 1 µM was below 30%.
For the molecule `CCCNC(=O)c1cccc(Nc2ccc(-c3ccccc3)nn2)c1` [Compound A68], on human ANO6 [1], the inhibition at 1 µM is at least 60% and the inhibition at 30 µM is at least 60%. For the same molecule, on human ANO6 [2], the inhibition at 0.1 µM was below 30% and the inhibition at 1 µM was below 30%.
For the molecule `CC(C)CCNC(=O)c1cccc(Nc2ccc(-c3ccccc3)nn2)c1` [Compound A70], on human ANO6 [1], the inhibition at 1 µM was at least 60% and the inhibition at 30 µM was at least 60%. At human ANO6 [2], the inhibition at 0.1 µM was 30 to 60% and the inhibition at 1 µM is at least 60%.
As to `CCCCCNC(=O)c1cccc(Nc2ccc(-c3ccccc3)nn2)c1` [Compound A72], at human ANO6 [1], the inhibition at 1 µM is at least 60% and the inhibition at 30 µM was at least 60%. The inhibition at 1 µM on human ANO6 [2] was in the range of 30 to 60%.
Turning to `O=C(NC1CCN(Cc2ccccc2)CC1)c1cccc(Nc2ccc(-c3ccccc3)nn2)c1` [Compound A73], at human ANO6 [1], the inhibition at 1 µM is at least 60% and the inhibition at 30 µM is at least 60%. At human ANO6 [2], the inhibition at 0.1 µM was below 30% and the inhibition at 1 µM was in the range of 30 to 60%.
For `O=C(NCCc1ccccc1)c1cccc(Nc2ccc(-c3ccccc3)nn2)c1` [Compound A74], on human ANO6 [1], the inhibition at 1 µM was at least 60% and the inhibition at 30 µM was at least 60%. On human ANO6 [2], the inhibition at 0.1 µM is below 30% and the inhibition at 1 µM was in the range of 30 to 60%.
For the molecule `O=C(NCc1ccccc1)c1cccc(Nc2ccc(-c3ccccc3)nn2)c1` [Compound A75], on human ANO6 [1], the inhibition at 1 µM fell in the range of 30 to 60% and the inhibition at 30 µM is at least 60%. Further, on human ANO6 [2], the inhibition at 0.1 µM was below 30% and the inhibition at 1 µM was in the range of 30 to 60%.
Take `COc1cccc(CNC(=O)c2cccc(Nc3ccc(-c4ccccc4)nn3)c2)c1` [Compound A76]: at human ANO6 [1], the inhibition at 1 µM is at least 60% and the inhibition at 30 µM is at least 60%. Further, on human ANO6 [2], the inhibition at 0.1 µM was below 30% and the inhibition at 1 µM lay in the range of 30 to 60%.
On to `COc1ccc(CNC(=O)c2cccc(Nc3ccc(-c4ccccc4)nn3)c2)cc1` [Compound A77], for which, at human ANO6 [1], the inhibition at 1 µM is at least 60% and the inhibition at 30 µM is at least 60%. Besides, on human ANO6 [2], the inhibition at 0.1 µM was below 30% and the inhibition at 1 µM was below 30%.
In the case of `CCC(C)NC(=O)c1cccc(Nc2ccc(-c3ccccc3)nn2)c1` (centres unmarked) [Compound A78], on human ANO6 [1], the inhibition at 1 µM is at least 60% and the inhibition at 30 µM was at least 60%. For the same molecule, at human ANO6 [2], the inhibition at 0.1 µM is below 30% and the inhibition at 1 µM was below 30%.
Turning to `CCOc1ccc(NC(=O)c2cccc(Nc3ccc(-c4ccccc4)nn3)c2)cc1` [Compound A80], at human ANO6 [1], the inhibition at 1 µM is at least 60%. At human ANO6 [2], the inhibition at 0.1 µM was below 30% and the inhibition at 1 µM is at least 60%.
On to `O=C(Nc1ccc(N2CCOCC2)cc1)c1cccc(Nc2ncc(-c3cccc(F)c3)cn2)c1` [Compound A84], for which the inhibition at 1 µM was at least 60% at human ANO6 [1] and 30 to 60% at human ANO6 [2]. At human ANO6 [2], the inhibition at 0.1 µM was below 30%.
For `O=C(Nc1ccc2c(c1)OCO2)c1cccc(Nc2ncc(-c3cccc(F)c3)cn2)c1` [Compound A85] the same measures were at least 60%, at least 60% and below 30%.
Take `Cc1ccc(CNC(=O)c2cccc(Nc3ccc(-c4cccc(F)c4)nn3)c2)o1` [Compound A87]: the figures for the inhibition at 1 µM on human ANO6 [1] and at human ANO6 [2] were at least 60% and 30 to 60%, respectively.
In the case of `O=C(Nc1ccccc1)c1cccc(Nc2ccc(-c3ccccc3)nn2)c1` [Compound A89], the inhibition at 1 µM on human ANO6 [1] and on human ANO6 [2] was at least 60% in each case. The inhibition at 0.1 µM on human ANO6 [2] lay within 30 to 60%.
